Measurements from patent US6384075B1, “Bicyclic amino derivatives and PGD2, antagonist containing them” (Shionogi & Co., Ltd., priority 1995, dated 2002).
pIC50: −log10 of the molar value.

Assays:
[1] = tested on: nasal cavity resistance (nasal occlusion model); assay: Nasal occlusion model: nasal cavity resistance after antigen (OVA) exposure in sensitized guinea pig; type: in vivo; settings: 1 mg/kg (i.v.), 10 min before antigen exposure
Experimental: Experiment Using Nasal Occlusion Model
The method used for measuring the nasal cavity resistance and evaluating the anti-nasal occlusion using a guinea pig are described below.
A 1% ovalbumin (OVA) solution was treated with ultrasonic nebulizer to obtain an aerosol. Hartley male guinea pig was sensitized by inhaling twice the aerosol for 10 min at one-week interval. Seven-day after the sensitization, the guinea pig was exposed to an antigen to initiate the reaction. Then the trachea was incised under the anesthesia with pentobarbital (30 mg/kg, i.p.) and cannulas were inserted into the trachea at the pulmonary and nasal cavity sides. The canal inserted at the pulmonary side was connected with an artificial respirator that provides 4 ml air 60 times/min. After arresting the spontaneous respiration of a guinea pig with Garamin (2 mg/kg, i.v.), air was supplied to the snout side with an artificial respirator at the frequency of 70 times/min, and the flow rate of 4 ml air/time, and the atmospheric pressure required for the aeration was measured by the use of a transducer fitted at the branch. The measurement was used as a parameter of the nasal cavity resistance. The exposure of an antigen was carried out by generating aerosol of 3% OVA solution for 3 min between the respirator and nasal cavity cannula. The test drug was injected intravenously 10 min before the antigen exposure. […]

PGD2 receptor = target: T1, PGD2 receptor (Homo sapiens, UniProt Q13258); assay: Binding to PGD2 receptor ([3H]PGD2, human platelet membrane fraction); settings: 5 nM [3H]PGD2, 4° C., 90 min, read-out: Activity (binding-inhibitory activity, concentration required for 50% inhibition, IC50)
T1 construct: Preparation of Human Platelet Membrane Fraction; from tissue; host or cells: human platelets (membrane fraction) from blood of healthy volunteers
T1 sequence (Q13258 1-359): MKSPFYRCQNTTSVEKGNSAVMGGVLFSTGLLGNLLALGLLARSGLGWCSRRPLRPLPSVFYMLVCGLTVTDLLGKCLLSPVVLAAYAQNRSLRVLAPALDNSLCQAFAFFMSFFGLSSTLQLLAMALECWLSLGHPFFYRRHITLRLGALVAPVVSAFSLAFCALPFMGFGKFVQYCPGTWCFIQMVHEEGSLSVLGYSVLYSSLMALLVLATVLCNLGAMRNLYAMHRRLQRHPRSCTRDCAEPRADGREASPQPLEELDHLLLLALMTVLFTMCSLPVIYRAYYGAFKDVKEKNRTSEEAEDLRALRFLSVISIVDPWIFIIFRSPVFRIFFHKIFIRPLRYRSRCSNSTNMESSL
Experimental: (1) Preparation of Human Platelet Membrane Fraction
Blood sample was obtained using a plastic syringe containing 3.8% sodium citrate from a venous of healthy volunteers (adult male and female), put into a plastic test tube and mixed gently by inversion. The sample was then centrifuged at 1800 rpm, 10 min at room temperature, and supernatant containing PRP (platelet rich plasma) was collected. The PRP was re-centrifuged at 2300 rpm, 22 min at room temperature to obtain platelets. The platelets were homogenized using a homogenizer (Ultra-Turrax) followed by centrifugation 3 times at 20,000 rpm, 10 min at 4° C. to obtain platelet membrane fraction. After protein determination, the membrane fraction was adjusted to 2 mg/ml and preserved in a refrigerator at […] until use.
(2) Binding to PGD2 Receptor
To a binding-reaction solution (50 mM Tris/HCl, pH 7.4, 5 mM MgCl2) (0.2 ml) were added human platelet membrane fraction (0.1 mg) and 5 nM [3H]PGD2 (115 Ci/mmol), and reacted at 4° C. for 90 min. After the reaction completed, the reaction mixture was filtered through the glass fiber filter paper, washed several times with cooled saline, and measured radioactivity retained on the filter paper. The specific binding was calculated by subtracting the non-specific binding (the binding in the presence of 10 μM PGD2) from the total binding. […]

For `O=C(O)CCC/C=C\C[C@@H]1[C@H]2CC[C@H](C2)[C@H]1NS(=O)(=O)c1ccc2oc3ccccc3c2c1` [1a-2, (Z)-7-[(1S,2R,3R,4R)-3-(2-dibezofuryl)sulfonylaminobicyclo[2.2.1]hept-2-yl]-5-heptenoic acid], the “Inhibition Rate (%) of nasal cavity resistance (AUC 0-30 min vs vehicle)” value [1] was 82% and the pIC50 (PGD2 receptor) was 6.89.
